The values below are quoted from earlier work in patent US9670196B2, “Thiazole-substituted aminoheteroaryls as Spleen Tyrosine Kinase inhibitors” (Merck Sharp & Dohme Corp., priority 2013, dated 2017).

For data set [1] the following is noted: dosed intranasally, phase I/II study, allergic rhinitis; cited from earlier work.
The conditions of data set [2]: phase II clinical trial for allergic rhinitis; cited from earlier work.

As to `Oc1cccc(Nc2ncc(F)c(Nc3cccc(O)c3)n2)c1` [Example R112], in data set [1], the PGD2 result is on record as “statistically significant decrease” and the clinical safety result is reported as “safe across a range of indicators”. In addition, the efficacy versus placebo result in data set [2] is on record as “lack of efficacy versus placebo”.
